From US20150289513A1, “USE OF A COMPOUND COMPRISING A POLYFLUOROBENZYL MOIETY AGAINST INSECTICIDE-RESISTANT PESTS” (priority 2012, published 2015)

What was measured:
[1] = tested on: Anopheles funestus (metabolic-resistant strain FUMOZ-R); assay: Glazed tile contact test, knock-down; type: in vivo
Experimental: (§1) To produce a suitable preparation Transfluthrin was dissolved in acetone. The active compound solution was pipetted onto a glazed tile and, after drying, adult mosquitoes of the species: • Anopheles gambiae (target-site-resistant and metabolic-resistant strain: RSPH), • Anopheles gambiae (target-site-resitant and metabolic-resistant strain: Tiassalé), • Anopheles gambiae (tar et-site-resitant and metabolic-resistant strain: Akron), • Anopheles gambiae (target-site-resistant strain: VK7), and • Anopheles funestus (metabolic-resistant strain FUMOZ-R) were placed onto the treated tile (each strain was tested on separate tiles). The exposition time was 30 minutes.
0.25 hours, 0.5 hours, 1 hour, 2 hour, 3 hour, 4 hour and 24 hours after contact to the treated surface, the knock-down proportion of the test animals in % was determined. Here, 100% (effect) means that all mosquitoes have been killed; 0% (effect) means that none of the mosquitoes have been killed.
(§2) Similarly as outlined in example 2 for Transfluthrin, Metofluthrin efficacy was assessed against • Anopheles gambiae (target-site-resistant and metabolic-resistant strain: RSPH), • Anopheles funestus (metabolic-resistant strain FUMOZ-R), and • Culex quinquefasciatus (metabolic-resistant to DDT; strain P00), with the results shown in Tables 10 to 12. 0.25 hours, 0.5 hours, 1 hour, 2 hour, 3 hour, 4 hour and 24 hours after contact to the treated surface, the knock-down proportion of the test animals in % is depicted in Tables 10 to 12. 100% (effect) means that all mosquitoes have been killed; 0% (effect) means that none of the mosquitoes have been killed.
Similarly as outlined in example 2 for Transfluthrin, Metofluthrin efficacy was assessed against • Anopheles gambiae (target-site-resistant and metabolic-resistant strain: RSPH), • Anopheles funestus (metabolic-resistant strain FUMOZ-R), and with the results shown in Tables […]. 0.25 hours, 0.5 hours, 1 hour, 2 hour and 3 hours after contact to the treated surface, the knock-down proportion of the test animals in % is depicted in Tables 13 to 14. 100% (effect) means that all mosquitoes have been killed; 0% (effect) means that none of the mosquitoes have been killed.

[2] = tested on: Culex quinquefasciatus (metabolic-resistant to DDT; strain P00); assay: Glazed tile contact test, knock-down; type: in vivo
Experimental: as §1, §2

[3] = 0.064 /ha, 0.25 h after contact

CC=CC1C(C(=O)OCc2c(F)c(F)c(COC)c(F)c2F)C1(C)C (centres unmarked) [Metofluthrin, 2,3,5,6-Tetrafluoro-4-(methoxymethyl)benzyl 2,2-dimethyl-3-(prop-1-en-1-yl)cyclopropanecarboxylate]
Effect % [1, 3]: 0%
Effect % ([1]; 0.064 /ha, 0.5 h after contact): 0%
Effect % ([1]; 0.064 /ha, 1 h after contact): 0%
Effect % ([1]; 0.064 /ha, 2 h after contact): 0%
Effect % ([1]; 0.064 /ha, 3 h after contact): 0%
Effect % ([1]; 0.064 /ha, 4 h after contact): 0%
Effect % ([1]; 0.064 /ha, 24 h after contact): 20%
Effect % ([1]; 0.32 /ha, 0.25 h after contact): 0%
Effect % ([1]; 0.32 /ha, 0.5 h after contact): 0%
Effect % ([1]; 0.32 /ha, 1 h after contact): 0%
Effect % ([1]; 0.32 /ha, 2 h after contact): 0%
Effect % ([1]; 0.32 /ha, 3 h after contact): 0%
Effect % ([1]; 0.32 /ha, 4 h after contact): 0%
Effect % ([1]; 0.32 /ha, 24 h after contact): 10%
Effect % ([1]; 1.6 /ha, 0.25 h after contact): 90%
Effect % ([1]; 1.6 /ha, 0.5 h after contact): 100%
Effect % ([1]; 1.6 /ha, 1 h after contact): 100%
Effect % ([1]; 1.6 /ha, 2 h after contact): 80%
Effect % ([1]; 1.6 /ha, 3 h after contact): 40%
Effect % ([1]; 1.6 /ha, 4 h after contact): 40%
Effect % ([1]; 1.6 /ha, 24 h after contact): 70%
Effect % ([1]; 8 /ha, 0.25 h after contact): 100%
Effect % ([1]; 8 /ha, 0.5 h after contact): 100%
Effect % ([1]; 8 /ha, 1 h after contact): 100%
Effect % ([1]; 8 /ha, 2 h after contact): 100%
Effect % ([1]; 8 /ha, 3 h after contact): 100%
Effect % ([1]; 8 /ha, 4 h after contact): 100%
Effect % ([1]; 8 /ha, 24 h after contact): 100%
Effect % ([1]; 40 /ha, 0.25 h after contact): 100%
Effect % ([1]; 40 /ha, 0.5 h after contact): 100%
Effect % ([1]; 40 /ha, 1 h after contact): 100%
Effect % ([1]; 40 /ha, 2 h after contact): 100%
Effect % ([1]; 40 /ha, 3 h after contact): 100%
Effect % ([1]; 40 /ha, 4 h after contact): 100%
Effect % ([1]; 40 /ha, 24 h after contact): 100%
Effect % ([1]; 200 /ha, 0.25 h after contact): 100%
Effect % ([1]; 200 /ha, 0.5 h after contact): 100%
Effect % ([1]; 200 /ha, 1 h after contact): 100%
Effect % ([1]; 200 /ha, 2 h after contact): 100%
Effect % ([1]; 200 /ha, 3 h after contact): 100%
Effect % ([1]; 200 /ha, 4 h after contact): 100%
Effect % ([1]; 200 /ha, 24 h after contact): 100%
Effect % ([1]; 1000 /ha, 0.25 h after contact): 100%
Effect % ([1]; 1000 /ha, 0.5 h after contact): 100%
Effect % ([1]; 1000 /ha, 1 h after contact): 100%
Effect % ([1]; 1000 /ha, 2 h after contact): 100%
Effect % ([1]; 1000 /ha, 3 h after contact): 100%
Effect % ([1]; 1000 /ha, 4 h after contact): 100%
Effect % ([1]; 1000 /ha, 24 h after contact): 100%
Effect % [2, 3]: 0%
Effect % ([2]; 0.064 /ha, 0.5 h after contact): 0%
Effect % ([2]; 0.064 /ha, 1 h after contact): 0%
Effect % ([2]; 0.064 /ha, 2 h after contact): 0%
Effect % ([2]; 0.064 /ha, 3 h after contact): 0%
Effect % ([2]; 0.064 /ha, 4 h after contact): 0%
Effect % ([2]; 0.064 /ha, 24 h after contact): 0%
Effect % ([2]; 0.32 /ha, 0.25 h after contact): 0%
Effect % ([2]; 0.32 /ha, 0.5 h after contact): 0%
Effect % ([2]; 0.32 /ha, 1 h after contact): 0%
Effect % ([2]; 0.32 /ha, 2 h after contact): 0%
Effect % ([2]; 0.32 /ha, 3 h after contact): 0%
Effect % ([2]; 0.32 /ha, 4 h after contact): 0%
Effect % ([2]; 0.32 /ha, 24 h after contact): 10%
Effect % ([2]; 1.6 /ha, 0.25 h after contact): 90%
Effect % ([2]; 1.6 /ha, 0.5 h after contact): 100%
Effect % ([2]; 1.6 /ha, 1 h after contact): 100%
Effect % ([2]; 1.6 /ha, 2 h after contact): 100%
Effect % ([2]; 1.6 /ha, 3 h after contact): 100%
Effect % ([2]; 1.6 /ha, 4 h after contact): 100%
Effect % ([2]; 1.6 /ha, 24 h after contact): 100%
Effect % ([2]; 8 /ha, 0.25 h after contact): 100%
Effect % ([2]; 8 /ha, 0.5 h after contact): 100%
Effect % ([2]; 8 /ha, 1 h after contact): 100%
Effect % ([2]; 8 /ha, 2 h after contact): 100%
Effect % ([2]; 8 /ha, 3 h after contact): 100%
Effect % ([2]; 8 /ha, 4 h after contact): 100%
Effect % ([2]; 8 /ha, 24 h after contact): 100%
Effect % ([2]; 40 /ha, 0.25 h after contact): 100%
Effect % ([2]; 40 /ha, 0.5 h after contact): 100%
Effect % ([2]; 40 /ha, 1 h after contact): 100%
Effect % ([2]; 40 /ha, 2 h after contact): 100%
Effect % ([2]; 40 /ha, 3 h after contact): 100%
Effect % ([2]; 40 /ha, 4 h after contact): 100%
Effect % ([2]; 40 /ha, 24 h after contact): 100%
Effect % ([2]; 200 /ha, 0.25 h after contact): 100%
Effect % ([2]; 200 /ha, 0.5 h after contact): 100%
Effect % ([2]; 200 /ha, 1 h after contact): 100%
Effect % ([2]; 200 /ha, 2 h after contact): 100%
Effect % ([2]; 200 /ha, 3 h after contact): 100%
Effect % ([2]; 200 /ha, 4 h after contact): 100%
Effect % ([2]; 200 /ha, 24 h after contact): 100%
Effect % ([2]; 1000 /ha, 0.25 h after contact): 100%
Effect % ([2]; 1000 /ha, 0.5 h after contact): 100%
Effect % ([2]; 1000 /ha, 1 h after contact): 100%
Effect % ([2]; 1000 /ha, 2 h after contact): 100%
Effect % ([2]; 1000 /ha, 3 h after contact): 100%
Effect % ([2]; 1000 /ha, 4 h after contact): 100%
Effect % ([2]; 1000 /ha, 24 h after contact): 100%

CC1(C)[C@H](C=C(Cl)Cl)[C@H]1C(=O)OCc1c(F)c(F)cc(F)c1F [Transfluthrin, (1R,3S)-3-(2,2-Dichlorovinyl)-2,2-dimethyl-1-cyclopropanecarboxylic acid (2,3,5,6-tetrafluorophenyl)methyl ester]
Effect % ([1]; 0.32 g/ha, 0.25 h after contact): 95%
Effect % ([1]; 0.32 g/ha, 0.5 h after contact): 100%
Effect % ([1]; 0.32 g/ha, 1 h after contact): 100%
Effect % ([1]; 0.32 g/ha, 2 h after contact): 60%
Effect % ([1]; 0.32 g/ha, 3 h after contact): 40%
Effect % ([1]; 0.32 g/ha, 4 h after contact): 40%
Effect % ([1]; 1.6 g/ha, 0.25 h after contact): 100%
Effect % ([1]; 1.6 g/ha, 0.5 h after contact): 100%
Effect % ([1]; 1.6 g/ha, 1 h after contact): 100%
Effect % ([1]; 1.6 g/ha, 2 h after contact): 100%
Effect % ([1]; 1.6 g/ha, 3 h after contact): 95%
Effect % ([1]; 1.6 g/ha, 4 h after contact): 100%
Effect % ([1]; 8 g/ha, 0.25 h after contact): 100%
Effect % ([1]; 8 g/ha, 0.5 h after contact): 100%
Effect % ([1]; 8 g/ha, 1 h after contact): 100%
Effect % ([1]; 8 g/ha, 2 h after contact): 100%
Effect % ([1]; 8 g/ha, 3 h after contact): 100%
Effect % ([1]; 8 g/ha, 4 h after contact): 100%
Effect % ([1]; 40 g/ha, 0.25 h after contact): 100%
Effect % ([1]; 40 g/ha, 0.5 h after contact): 100%
Effect % ([1]; 40 g/ha, 1 h after contact): 100%
Effect % ([1]; 40 g/ha, 2 h after contact): 100%
Effect % ([1]; 40 g/ha, 3 h after contact): 100%
Effect % ([1]; 40 g/ha, 4 h after contact): 100%
Effect % ([1]; 200 g/ha, 0.25 h after contact): 100%
Effect % ([1]; 200 g/ha, 0.5 h after contact): 100%
Effect % ([1]; 200 g/ha, 1 h after contact): 100%
Effect % ([1]; 200 g/ha, 2 h after contact): 100%
Effect % ([1]; 200 g/ha, 3 h after contact): 100%
Effect % ([1]; 200 g/ha, 4 h after contact): 100%
